Assay results as given in ChEMBL document CHEMBL6078687 (J Med Chem, 2024).

Assays:
in vivo [1] = conditions: Sprague-Dawley, rat, iv, 2 mg/kg
in vivo [2] = conditions: Sprague-Dawley, rat, po, 20 mg/kg
[3] = Acute toxicity in Kunming mouse assessed as animal mortality at 1000 mg/kg, IG measured for 1 week; assay type: organism-based; conditions: in vivo, po, 168 h, time 1 weeks
[4] = Cytotoxicity against MDCK cells incubated for 48 hrs by MTT assay; assay type: toxicity, cell-based, Canis lupus familiaris; conditions: dog
[5] = Inhibition of neuraminidase in Influenza A virus A/Babol/36/2005 H3N2 using MUNANA as substrate incubated for 40 mins by […] based assay
[6] = Half life in Sprague-Dawley rat at 20 mg/kg, po measured for 15 to 1440 mins by LC-MS/MS analysis; assay type: ADME, organism-based; conditions: in vivo, time 15-1440 min
in vivo [7] = conditions: Sprague-Dawley, rat, po, 20 mg/kg; remark: listed apart in the source
[8] = Apparent volume of distribution in Sprague-Dawley rat at 2 mg/kg, iv measured for 15 to 1440 mins by LC-MS/MS analysis; assay type: ADME, organism-based; conditions: in vivo, time 15-1440 min, read-out: Vz
Influenza A virus [9] = assay: Antiviral activity against Influenza A virus A/WSN/67/05 H3N2 infected in MDCK cells assessed as inhibition of plaque formation measured after 2 days; conditions: A/WSN/67/05 H3N2, MDCK, 48 h
[10] = Tmax in Sprague-Dawley rat at 20 mg/kg, po measured for 15 to 1440 mins by LC-MS/MS analysis; assay type: ADME, organism-based; conditions: in vivo, time 15-1440 min
[11] = MRT (0 to infinity) in Sprague-Dawley rat at 20 mg/kg, po measured for 15 to 1440 mins by LC-MS/MS analysis; assay type: ADME, organism-based; conditions: in vivo, time 15-1440 min
[12] = Half life in Sprague-Dawley rat at 2 mg/kg, iv measured for 15 to 1440 mins by LC-MS/MS analysis; assay type: ADME, organism-based; conditions: in vivo, time 15-1440 min
[13] = Tmax in Sprague-Dawley rat at 2 mg/kg, iv measured for 15 to 1440 mins by LC-MS/MS analysis; assay type: ADME, organism-based; conditions: in vivo, time 15-1440 min
[14] = Metabolic stability in human plasma assessed as compound remaining at 2 uM incubated upto 120 mins by LC-MS/MS analysis; assay type: ADME, cell-free; conditions: read-out: Stability
[15] = Cytotoxicity against CEF cells incubated for 48 hrs by CCK8 assay; assay type: toxicity, cell-based, Gallus gallus; conditions: chicken
Influenza A virus [16] = assay: microbe, parasite or virus in culture; conditions: A/Goose/Guangdong/SH7/2013 H5N1, CEF, 48 h
[17] = Acute toxicity in Kunming mouse assessed as increase in body weight at 1000 mg/kg, IG measured for 1 week; assay type: organism-based; conditions: in vivo, po, 168 h, time 1 weeks
[18] = Acute toxicity in Kunming mouse assessed as signs of convulsion movements at 1000 mg/kg, IG measured for 1 week; assay type: organism-based; conditions: in vivo, po, 168 h, time 1 weeks
Influenza A virus [19] = assay: microbe, parasite or virus in culture; conditions: A/Goose/Jiangsu/1306/2014 H5N8, CEF, 48 h
[20] = Acute toxicity in Kunming mouse assessed as signs of disheveled fur at 1000 mg/kg, IG measured for 1 week; assay type: organism-based; conditions: in vivo, po, 168 h, time 1 weeks
Influenza A virus [21] = assay: microbe, parasite or virus in culture; conditions: A/PR/8/34 H1N1, MDCK, 48 h
[22] = Cmax in Sprague-Dawley rat at 2 mg/kg, iv measured for 15 to 1440 mins by LC-MS/MS analysis; assay type: ADME, organism-based; conditions: in vivo, time 15-1440 min
[23] = Oral bioavailability in Sprague-Dawley rat at 20 mg/kg measured for 15 to 1440 mins by LC-MS/MS analysis; assay type: ADME, organism-based; conditions: in vivo, time 15-1440 min
[24] = Cmax in Sprague-Dawley rat at 20 mg/kg, po measured for 15 to 1440 mins by LC-MS/MS analysis; assay type: ADME, organism-based; conditions: in vivo, time 15-1440 min
[25] = Clearance in Sprague-Dawley rat at 2 mg/kg, iv measured for 15 to 1440 mins by LC-MS/MS analysis; assay type: ADME, organism-based; conditions: in vivo, time 15-1440 min
[26] = Metabolic stability in human liver microsomes assessed as compound remaining incubated for 60 mins by LC-MS/MS analysis; assay type: ADME, Microsome; conditions: 1 h
[27] = Metabolic stability in human plasma assessed as half life at 2 uM incubated upto 120 mins by LC-MS/MS analysis; assay type: ADME, cell-free
in vitro [28] = conditions: human, liver microsomes
[29] = Inhibition of neuraminidase in Influenza A virus A/Goose/Guangdong/SH7/2013 H5N1 using MUNANA as substrate incubated for 40 mins by […] based assay
[30] = Acute toxicity in Kunming mouse assessed as signs of appetite loss at 1000 mg/kg, IG measured for 1 week; assay type: organism-based; conditions: in vivo, po, 168 h, time 1 weeks
[31] = MRT (0 to t) in Sprague-Dawley rat at 2 mg/kg, iv measured for 15 to 1440 mins by LC-MS/MS analysis; assay type: ADME, organism-based; conditions: in vivo, time 15-1440 min
in vivo [32] = conditions: Sprague-Dawley, rat, iv, 2 mg/kg; remark: listed apart in the source
[33] = Acute toxicity in Kunming mouse assessed as drug tolerance at 1000 mg/kg, IG measured for 1 week; assay type: organism-based; conditions: in vivo, po, 168 h, time 1 weeks
in vitro [34] = conditions: human, liver microsomes; remark: listed apart in the source
[35] = MRT (0 to infinity) in Sprague-Dawley rat at 2 mg/kg, iv measured for 15 to 1440 mins by LC-MS/MS analysis; assay type: ADME, organism-based; conditions: in vivo, time 15-1440 min
[36] = Acute toxicity in Kunming mouse assessed as signs of sedation at 1000 mg/kg, IG measured for 1 week; assay type: organism-based; conditions: in vivo, po, 168 h, time 1 weeks
[37] = MRT (0 to t) in Sprague-Dawley rat at 20 mg/kg, po measured for 15 to 1440 mins by LC-MS/MS analysis; assay type: ADME, organism-based; conditions: in vivo, time 15-1440 min
in vitro [38] = conditions: human, liver microsomes; remark: listed apart in the source

| Compound | AUC(0-inf) (in vivo [1]) [ng·h/mL] | AUC(0-t) (in vivo [2]) [ng·h/mL] | Activity [3] | EC50 at 48 h [4] [nM] | IC50 [5] [nM] | half-life [6] [min] | AUC(0-inf) (in vivo [7]) [ng·h/mL] | Vd [8] [L/kg] | EC50 (Influenza A virus [9]) [nM] | Tmax [10] [min] | MRT inf [11] [min] | half-life [12] [min] | CC50 at 48 h [15] [nM] | EC50 (Influenza A virus [16]) [nM] | EC50 (Influenza A virus [19]) [nM] | EC50 (Influenza A virus [21]) [nM] | Stability [26] [%] | CLint scaled at 2 h (in vitro [28]) [mL/min/kg] | IC50 [29] [nM] | microsomal CLint at 2 h (in vitro [34]) [µL/min/mg] | other results |
| --- | --- | --- | --- | --- | --- | --- | --- | --- | --- | --- | --- | --- | --- | --- | --- | --- | --- | --- | --- | --- | --- |
| CCC(CC)O[C@@H]1C=C(C(=O)O)C[C@H](NCc2ccc(OCc3cccc(B(O)O)c3)cc2Cl)[C@H]1NC(C)=O | 749 | 47 | Non-toxic | > 250000 | 260 | 41.4 | 48.8 | 1.12 | > 100000 | 15 | 54.6 | 16.8 | > 200000 | 5410 | 3260 | 8 | 98.6 | 12.2 | 17 | 13.6 | Tmax [13]: 4.98 min; remaining at 2 h, 2 µM [14]: 104%; Activity [17]: Toxic; Activity [18]: Non-toxic; Activity [20]: Non-toxic; Cmax [22]: 2520 ng/mL; bioavailability [23]: 0.65%; Cmax [24]: 57.5 ng/mL; clearance [25]: 45.5 mL/min/kg; half-life at 2 µM [27]: > 289 min; Activity [30]: Non-toxic; MRT last [31]: 9.6 min; AUC(0-t) (in vivo [32]): 747 ng·h/mL; Activity [33]: Non-toxic; MRT inf [35]: 10.2 min; Activity [36]: Non-toxic; MRT last [37]: 46.8 min |
| C[C@]12CC[C@H]3[C@@H](CCC4=CC(=O)CC[C@@]43C)[C@@H]1CC[C@@H]2O [TESTOSTERONE] |  |  |  |  |  |  |  |  |  |  |  |  |  |  |  |  |  |  |  |  | remaining at 2 h (in vitro [38]): 4.1% |
| CCC(CC)O[C@@H]1C=C(C(=O)O)C[C@H](NCc2ccc(OCc3cccc(B(O)O)c3)cc2C)[C@H]1NC(C)=O | 1380 | 12.7 | Non-toxic | > 250000 | 470 | 78.6 | 20.3 | 0.511 | 67500 | 1320 | 117 | 15 | > 200000 | 1290 | 1270 | 8 | 112.2 | 10.1 | 90 | 11.2 | Tmax [13]: 4.98 min; remaining at 2 h, 2 µM [14]: 99.3%; Activity [17]: Toxic; Activity [18]: Non-toxic; Activity [20]: Non-toxic; Cmax [22]: 4850 ng/mL; bioavailability [23]: 0.15%; Cmax [24]: 10.4 ng/mL; clearance [25]: 24.8 mL/min/kg; half-life at 2 µM [27]: > 289 min; Activity [30]: Non-toxic; MRT last [31]: 7.8 min; AUC(0-t) (in vivo [32]): 1370 ng·h/mL; Activity [33]: Non-toxic; MRT inf [35]: 7.8 min; Activity [36]: Non-toxic; MRT last [37]: 48.6 min |
| CCC(CC)O[C@@H]1C=C(C(=O)O)C[C@H](N)[C@H]1NC(C)=O [OSELTAMIVIR CARBOXYLATE] |  |  |  | > 250000 | 9 |  |  |  | 750 |  |  |  | > 200000 | 1790 | 8640 | 56 | 114.6 | 11.8 | 61 | 13.1 |  |
| CC(C)NCC(O)COc1cccc2ccccc12 (configuration not stated) [PROPRANOLOL] |  |  |  |  |  |  |  |  |  |  |  |  |  |  |  |  |  |  |  |  | remaining at 2 h (in vitro [38]): 0.5% |
